Patent publication US20100036088A1, “Selective poly-N-substituted glycine antibiotics” (priority 2008, published 2010)
Read-outs that look alike come from different tables or passages of the source. Square brackets hold non-standard residues; d marks the D form. Peptide text beside a SMILES is read from it. Gly(N-CH2CH2-imidazol-4-yl) = O=C(O)CNCCc1c[nH]cn1; Nspe = C[C@H](NCC(=O)O)c1ccccc1; Nlys = NCCCCNCC(=O)O

Columns and labels:
E. coli JM109 = format: cell-based
Description: (§1) An initial set of 15 ampetoid analogs was synthesized to determine whether peptoids are affected by structural and sequence modifications in a manner consistent with AMP activities. The designs for ampetoids in this library were derived from two antibacterial and selective amphipathic dodecamers, 1 and 2. Peptoid 1 [H-(Nlys-Nspe-Nspe)4—NH2] is composed of 2/3 Nspe, the peptoid analog of phenylalanine, and 1/3 Nlys, the peptoid analog of lysine (see FIG. 1 for the structures of representative peptoid monomers and corresponding N-substituents). Peptoid 2 [H-(Nlys-Nssb-Nspe)4—NH2] contains 1/3 isoleucine-like Nssb monomers in place of Nspe. The variant sequences were designed to effect changes in chirality, length, hydrophobicity, charge, and amphipathicity. All of these compounds were tested for antibacterial activity against representative BSL1 Gram-negative (E. coli JM109) and Gram-positive (B. subtilis BR151) bacterial strains. As an initial measure of selectivity, the lytic activity of the peptoids was determined against human erythrocytes. Table 1 summarizes the sequences synthesized, the solvent composition at RP-HPLC elution as a relative measure of molecular hydrophobicity, and antibacterial and hemolytic activities.
(§2) Antibacterial assays. MICs were determined according to CLSI M7-A6 protocols in a 96-well microtiter plate. In test wells, 50 μL bacterial inoculum (5×10^5 CFU/ml) in Mueller-Hinton broth (MHB) was added to 50 μL peptoid solution in MHB (prepared by 1:2 serial dilutions). Positive controls contained 50 μL inoculum and 50 μL MHB without peptoid. […] MIC values reported were reproducible between three independent experimental replicates, each consisting of two parallel trials. Broad-spectrum antimicrobial susceptibility testing was performed against BSL2 pathogens by Nova Biologicals, Inc. (Conroe, Tex.).

[1] = system: A549 lung epithelial cells; test: MTS assay, metabolic inhibition
Procedure: The biocompatibility of selected oligomers with A549 lung epithelial cells was evaluated using the MTS [3-(4,5-dimethylthiazol-2-yl)-5-(3-carboxymethoxyphenyl)-2-(4-sulfophenyl)-2H-tetrazolium] assay.
MTS Assays. A549 carcinoma-derived lung epithelial cells (ATTC CCL-185) were cultured in Ham's F12K media (ATTC, Manassas, Va.). A peptoid solution plate (100 μL/well) was prepared by serial dilution of aqueous peptoid stocks in media. Peptoid solutions were transferred onto a 96-well plate of day-old cell monolayers containing 100 μL/well media with ˜5000 cells/well. MTS reagent (Promega Corporation, Madison, Wis.) (40 μL/well) was added to each well and the plate was incubated at 37° C. for 3 h, after which absorbance at 490 nm was determined. Percent inhibition was determined as [1−(A−Atest blank)/(Acontrol−Ablank)]×100, where A is the absorbance of the test well and Acontrol the average absorbance of wells with cells exposed to media and MTS (no peptoid). Atest blank (media, MTS, and peptoid) and Ablank (media and MTS) were background absorbances measured in the absence of cells. The average of six replicates are reported, and error bars show one standard deviation.

[2] = system: Staphyloccus aureus (ATCC #25923); test: Murine intraperitoneal infection model; format: in vivo; conditions: mouse, 4 mg/kg I.P.; eleven mice treated with 1-Nhis6,12
Procedure: Using a murine peritoneal injection mouse model, the ability of peptoids to treat infection was evaluated in vivo. The results from three separate studies of peptoid 1 and two of peptoid 1-Nhis6,12 against saline treated controls are shown in FIG. 7. The horizontal line represents the geometric mean of each population.
Murine intraperitoneal infection model. Bacteria was prepared by inoculating 5 mL of MHB with a single colony of Staphyloccus aureus (ATCC #25923) from a freshly streaked plate and grown overnight at 37 C. The following morning, the bacteria was subcultured by diluting 1/3 in MHB and grown for approximately 1.5 hours. The bacteria were then diluted 10-fold in a 5% mucin in PBS solution and thoroughly mixed. A sample was reserved to later determine the amount of bacteria the mice received.
Mice were weighed, marked, and injected I.P. with 200 uL of S. aureus inoculum. Four hours post infection, mice were treated I.P. with 4 mg/kg peptoid (˜100 ug per mouse). The infection is allowed to proceed overnight. Mice were euthanized by CO2 asphyxiation after 24 hours, and the peritoneal cavity was exposed and lavaged with 5 mL PBS. The lavage was mixed and reserved on ice until plating. […] Colonies were counted the following day, and the CFU/ml of each sample was calculated. […]

B. subtilis (ATCC 6633) = format: cell-based; conditions: ATCC 6633
In short: (§3)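 MICs by broth microdilution per CLSI M7-A6 in cation-adjusted Mueller-Hinton broth, using 2:1 serial dilutions of peptoid and a bacterial inoculum of 1×10^6 CFU/mL. Values reproducible over three experiments, each with two parallel trials.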

E. coli (ATCC 35218) = format: cell-based; conditions: ATCC 35218
In short: as §3

human erythrocytes = test: Hemolysis assay; format: cell-based
In short: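 Peptoid serial dilutions in PBS pH 7.4 were combined with an equal volume of 20 vol % washed human red cells (heparinised blood) for 1 h at 37 °C. After dilution and pelleting at 1200 g, released haemoglobin in supernatant was read at A350, scaled between PBS and 0.2 vol % Triton X-100 controls.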

[3] = RP-HPLC elution solvent composition as measure of molecular hydrophobicity; format: physicochemical; conditions: Table 5; average of three injections; linear 5%-95% acetonitrile/water (0.1% TFA) over 45 minutes, C18 column; measure of hydrophobicity
Description: as §1
Following synthesis, peptoid oligomers can be cleaved from the resin, simultaneously removing the tert-butoxycarbonyl (Boc) protecting group from Nlys residues, by treatment with 10 ml 2,2,2-trifluoroacetic acid (TFA)/triisopropylsilane/H2O (95:2.5:2.5 by volume) for 30 min. The cleavage mixture is then diluted with 25 ml 50% aqueous acetonitrile, frozen, and lyophilized. Dilution and lyophilization is repeated twice more in order to remove excess TFA. Subsequent to cleavage, peptoids are each purified to >97% homogeneity by preparative scale reversed-phase HPLC using a Waters Prep LC 4000 system, with Waters 2487 dual-wavelength UV detection, and gradient elution (solvent A, 0.1 vol % trifluoroacetic acid (TFA) in water; solvent B, 0.1 vol % TFA in acetonitrile) through a Vydac (Hysperia, Calif.) 214TP101550 C4 peptide/protein column (10-15 μm, 300 Å, 5×25 cm). Following prep HPLC, peptoid purities and crude yields were determined from analytical scale HPLC, performed with a Waters 2695 Separations Module with a Waters 2487 dual-wavelength UV detector and gradient elution (solvent A, 0.1 vol % TFA in water; solvent B, 0.1 vol % TFA in acetonitrile) through a Vydac C4 214TP53 peptide/protein column (5 μm, 300 Å, 3.2×250 mm). The precise gradient employed for HPLC depended on the identity and hydrophobicity of the oligomer in question. All analytical HPLC was performed at 0.5 ml/min flow and 58° C. Preparative HPLC was performed at 50 ml/min flow and room temperature.

[4] = MTS assay, metabolic inhibition; format: cell-based, mouse
In short: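 NIH/3T3 cells seeded at 5,000 per well, grown a day, then exposed to serially diluted peptoids in HBSS together with MTS reagent. Absorbance at 490 nm read after 3 hours at 37° C.; mean of six replicates.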

B. subtilis BR151 = format: cell-based; conditions: Table 1
Description: as §1, §2

C[C@@H](c1ccccc1)N(CC(=O)N(CCc1cnc[nH]1)CC(=O)N(CCCCN)CC(=O)N(CC(=O)N(CC(=O)N(CCCCN)CC(=O)N(CC(=O)N(CCc1cnc[nH]1)CC(N)=O)[C@@H](C)c1ccccc1)[C@@H](C)c1ccccc1)[C@@H](C)c1ccccc1)C(=O)CN(CCCCN)C(=O)CN(C(=O)CN(C(=O)CNCCCCN)[C@@H](C)c1ccccc1)[C@@H](C)c1ccccc1 [1-Nhis6,12] (H-[Nlys][Nspe][Nspe][Nlys][Nspe][Gly(N-CH2CH2-imidazol-4-yl)][Nlys][Nspe][Nspe][Nlys][Nspe][Gly(N-CH2CH2-imidazol-4-yl)]-NH2)
MICs (E. coli JM109; JM109): < 7 µM
ID10 relative to that of pexiganan [1]: 20 times
mice that died prematurely during the exposure period [2]: eight
B. subtilis MIC (B. subtilis (ATCC 6633)): 1.6 µM
E. coli MIC (E. coli (ATCC 35218)): >50 µM
HD10 (human erythrocytes): >110/>110 μM
HD50 (human erythrocytes): >110/>110 μM
HD10 (10% hemolytic dose) (human erythrocytes; red cells of human, 1 h): >110/>110 μM
HD50 (50% hemolytic dose) (human erythrocytes; red cells of human, 1 h): >110/>110 μM

CC(C)[C@H](C)N(CC(N)=O)C(=O)CN(C(=O)CN(CCCCN)C(=O)CN(C(=O)CN(C(=O)CN(CCCCN)C(=O)CN(C(=O)CN(C(=O)CN(CCCCN)C(=O)CN(C(=O)CN(C(=O)CNCCCCN)[C@@H](C)C(C)C)[C@@H](C)C(C)C)[C@@H](C)C(C)C)[C@@H](C)C(C)C)[C@@H](C)C(C)C)[C@@H](C)C(C)C)[C@@H](C)C(C)C [1-Nsdpall, H-(Nlys-Nsdp-Nsdp)4-NH2]
HPLC elution (% ACN) [3]: 63.2 % ACN
IC50 [4]: 64 µM
B. subtilis MIC (B. subtilis (ATCC 6633); Table 6): 0.78 µM
E. coli MIC (E. coli (ATCC 35218)): 50 µM
E. coli MIC (E. coli (ATCC 35218); Table 6): 25 µM
HD10 (human erythrocytes): >200/>200 μM
HD50 (human erythrocytes): >200/>200 μM

C[C@@H](c1ccccc1)N(CC(N)=O)C(=O)CN(C(=O)CN(CCCCN)C(=O)CN(C(=O)CN(C(=O)CN(CCCCN)C(=O)CN(C(=O)CN(C(=O)CN(CCCCN)C(=O)CN(C(=O)CN(C(=O)CN(CCCCN)C(=O)CN(C(=O)CN(C(=O)CNCCCCN)[C@@H](C)c1ccccc1)[C@@H](C)c1ccccc1)[C@@H](C)c1ccccc1)[C@@H](C)c1ccccc1)[C@@H](C)c1ccccc1)[C@@H](C)c1ccccc1)[C@@H](C)c1ccccc1)[C@@H](C)c1ccccc1)[C@@H](C)c1ccccc1 [115 mer, H-(Nlys-Nspe-Nspe)5-NH2]
cytotoxicity (in words) ([1]; A549 cells, MTS assay, FIG. 2): no worse than pexiganan
HD10 (10% hemolytic dose) (human erythrocytes; red cells of human, 1 h): 3 µM
HD50 (50% hemolytic dose) (human erythrocytes; red cells of human, 1 h): 19 µM

C[C@H](c1ccccc1)N(CC(N)=O)C(=O)CN(C(=O)CN(CCCCN)C(=O)CN(C(=O)CN(C(=O)CN(CCCCN)C(=O)CN(C(=O)CN(C(=O)CN(CCCCN)C(=O)CN(C(=O)CN(C(=O)CNCCCCN)[C@H](C)c1ccccc1)[C@H](C)c1ccccc1)[C@H](C)c1ccccc1)[C@H](C)c1ccccc1)[C@H](C)c1ccccc1)[C@H](C)c1ccccc1)[C@H](C)c1ccccc1 [1enantiomer]
B. subtilis MIC (B. subtilis BR151): 0.88 µM
E. coli MIC (E. coli JM109; Table 1, E. coli JM109): 3.5 µM
HD10 (10% hemolytic dose) (human erythrocytes; Table 1, human erythrocytes): 16 µM
HD50 (50% hemolytic dose) (human erythrocytes; Table 1, human erythrocytes): 86 µM
